Data reported in patent publication US20260137786A1, “FLUORESCENT COMPOUNDS FOR SYNERGISTIC PHOTODYNAMIC AND PHOTOTHERMAL CANCER THERANOSTIC” (The Hong Kong University of Science and Technology, priority 2022, published 2026).

Experiments:
Format in all cases: physicochemical
[1] = Absorption and emission (PL) spectra in THF solution; conditions: for emission spectra peak / maximum absorption: 10 μM
Experimental: (§1) First, the absorption and emission spectra were recorded. From FIG. 3a, the maximum absorptions of TPE-TBT and TPA-TBT are located at 582 and 620 nm, respectively, which display a redshift because of the enhancement of D-A strength from TPE-TBT to TPA-TBT. In addition, the emission spectra of the two molecules peaked at 750 and 830 nm, respectively (FIG. 3b). […] The aggregation behaviors of the compounds were then investigated. After adding poor solvent water to the THE solution, the fluorescence intensities of the two luminogens are first reduced at low water fractions (0-50% of water) resulting from the twisted intramolecular charge transfer (TICT) effect.

[2] = Aggregation behaviour (AIE) in THF/water mixtures; conditions: increasing water fraction
Experimental: as §1

[3] = Fluorescence quantum yield (QY)
Experimental: The fluorescence quantum yield (QY) of the two compounds in the solid state, NPs, THF, and other solvents, were also measured (FIG. 3d).
For better use in cancer theranostic, TPA-TBT and TPE-TBT were fabricated into nanoparticles (NPs) through the nanoprecipitation method using DSPE-PEG2000 as an encapsulation matrix. The hydrodynamic diameters of the two NPs were confirmed by dynamic light scattering (DLS). […] The UV/Vis absorption and fluorescence emission spectra of the two kinds of NPs were also measured, and the results are similar to that in the THF solutions. The fluorescence quantum yield (QY) of the two compounds in the solid state, NPs, THF, and other solvents, were also measured (FIG. 3d). […] ROS production efficiency and PCE were investigated to further explore the phototherapy potential of these AIEgens. We utilized a common ROS indicator Dichlorofluorescin Diace (H2DCF-DA), whose fluorescence can be sensitively activated by ROS, to indicate the overall ROS generation. From FIG. 3e, the fluorescence intensity of H2DCF-DA intensified rapidly in the presence of TPA-TBT NPs. Finally, it reached around 210-fold more robust than the initial intensity after 5 min upon white light irradiation, displaying a much higher ROS production efficiency than TPE-TBT NPs. […] While the PCE of TPE-TBT NPs is only 30%. Considering all the aspects, TPA-TBT NPs show longer fluorescence emission wavelength, higher ROS generation efficiency, and better photothermal efficiency. Therefore, TPA-TBT NPs are more promising for applications in the field of phototheranostic for synergistic cancer therapy.

`CCCCCCC(CCCC)Cc1cc(-c2ccc(N(c3ccc(OC)cc3)c3ccc(OC)cc3)cc2)sc1-c1c2c(c(-c3sc(-c4ccc(N(c5ccc(OC)cc5)c5ccc(OC)cc5)cc4)cc3CC(CCCC)CCCCCC)c3nn(CC(CC)CCCC)nc13)N=S=N2` (stereo not drawn) [TPA-TBT] gave a Stokes shift [1] of 210 nm, an emission spectra peak [1] of 830 nm and a maximum absorption [1] of 620 nm. For the same compound, the AIE intensity enhancement [2] was 3 fold, the “fluorescence quantum yield (QY)” value ([3]; THE solution / solution state) was 5% and the “fluorescence quantum yield (QY)” value ([3]; solid state) was 13%.

For `CCCCCCC(CCCC)Cc1cc(-c2ccc(C(=C(c3ccc(OC)cc3)c3ccc(OC)cc3)c3ccccc3)cc2)sc1-c1c2c(c(-c3sc(-c4ccc(C(=C(c5ccc(OC)cc5)c5ccc(OC)cc5)c5ccccc5)cc4)cc3CC(CCCC)CCCCCC)c3nn(CC(CC)CCCC)nc13)N=S=N2` (stereo not drawn) [TPE-TBT], the emission spectra peak [1] was 750 nm, the maximum absorption [1] was 582 nm and the “fluorescence quantum yield (QY)” value ([3]; THE solution / solution state) was “remarkable QY”.
